Reference: US20260373138A1, “COMPOUNDS WITH ANTIFUNGAL PROPERTIES” (priority 2023, published 2026)

System: A. fumigatus CEA10 reference strain
Assay: Fluconazole potentiator screen: MIC by CLSI microbroth dilution with and without fluconazole
Format: cell-based, Aspergillus fumigatus
Conditions: for MIC: Aspergillus fumigatus, read-out: MIC (ug/mL) (−) Fluc; for MIC / MIC (ug/mL) (+) Fluc: 18 h; for potency / potentiation of fluconazole (in words): structure-activity statements, fluconazole potentiator screen; for MIC (ug/mL) (+) Fluc: with 32 μg/ml fluconazole, normoxia, GMM, 37 °C

Compound | MIC [µg/mL] | potency / potentiation of fluconazole (in words) | MIC (ug/mL) (+) Fluc [µg/mL] | loss in potency compared to MBX-7591 (relative to MBX-7591) [fold]
Cc1cnccc1OCc1ccc(CC2CCN(C(=O)c3ccsc3)CC2)cc1 [MBX-8140] | > 20 | complete loss of activity | >20 | –
O=S(=O)(c1ccc(F)cc1)N1CCC(Oc2ccc(CN3CCOCC3)cc2)CC1 [MBX-8282] | 5.43 | – | 1.36 | –
COc1cccc(S(=O)(=O)N2CCC3(CC2)CC(CCOc2ccncc2)CCO3)c1 (stereo not shown) [MBX-7952] | 11.2 | – | 2.79 | –
O=C(c1ccccc1Cl)N1CCC(Cc2ccc(COc3ccncc3)cc2)CC1 [MBX-8091] | > 21 | – | >21 | –
O=C(c1ccccc1)N1CCC(Cc2ccc(COc3ccncc3)cc2)CC1 [MBX-7704] | > 15 | – | >15 | –
O=S(=O)(c1cccc(Cl)c1)N1CCC(Cc2ccc(CN3CCOCC3)cc2)CC1 [MBX-8187] | 4.45 | – | 2.50 | –
O=C(Nc1ccsc1)N1CCC(Cc2ccc(COc3ccncc3)cc2)CC1 [MBX-7805] | > 16 | – | >16 | –
N#Cc1ccc(OCc2ccc(CC3CCN(C(=O)c4ccsc4)CC3)cc2)cc1 [MBX-8027] | > 83 | – | >83 | –
O=S(=O)(c1cccc(F)c1)N1CCC(Cc2ccc(N3CCOCC3)cc2)CC1 [MBX-8222] | > 21 | – | >21 | –
O=C(c1ccsc1)N1CCC(Cc2ccc(COc3ccncc3)nc2)CC1 [MBX-8323] | 2.4 | – | 1.20 | –
CN1CCN(S(=O)(=O)N2CCC3(CC2)CC(CCOc2ccncc2)CCO3)CC1 (stereo not shown) [MBX-7951] | > 87 | complete loss of activity | >87 | –
O=C(c1ccc(Cl)cc1)N1CCC(Cc2ccc(COc3ccncc3)cc2)CC1 [MBX-7705] | 1.49 | low potentiation effect | 1.05 | –
Cc1ccc(S(=O)(=O)N2CCC3(CC2)CC(CCOc2ccncc2)CCO3)s1 (stereo not shown) [MBX-8144] | 0.77 | – | 0.21 | –
O=S(=O)(c1cc(F)cc(F)c1)N1CCC(Cc2ccc(CN3CCOCC3)cc2)CC1 [MBX-8223] | 12.6 | – | 3.50 | –
CC(C1CCN(Cc2ccc(CN3CCOCC3)cc2)CC1)S(=O)(=O)c1ccc(F)cc1 (stereo not shown) [MBX-8359] | > 23 | – | >23 | –
O=C(c1ccsc1)N1CC2(CC(CCOc3ccncc3)C2)C1 [MBX-8285] | 4.11 | – | 2.05 | –
Cc1ccc(C(=O)N2CCC(Cc3ccc(COc4ccncc4)cc3)CC2)cc1 [MBX-7707] | 1.18 | comparable activity to MBX-7591 | 0.59 | –
CC1CN(Cc2ccc(CC3CCN(S(=O)(=O)c4cccc(F)c4)CC3)cc2)CC(C)O1 (stereo not shown) [MBX-8190] | > 23 | not tolerated | >23 | –
O=C(c1ccsc1)N1CCC(Cc2ccc(OCc3ccncc3)cc2)CC1 [MBX-8024] | 19.6 | not optimal for potentiation of fluconazole | 19.60 | –
O=S(=O)(c1cccc(F)c1)N1CCC(C(O)c2ccc(CN3CCOCC3)cc2)CC1 (stereo not shown) [MBX-8355] | > 22 | – | >22 | –
O=S(=O)(c1ccc(F)cc1)N1CCC(Cc2ccc(CN3CCN(CC(F)(F)F)CC3)cc2)CC1 [MBX-8438] | > 25 | – | >25 | –
O=S(=O)(c1ccc(F)cc1)N1CCC(Cc2ccc(CN3CCn4cncc4C3)cc2)CC1 [MBX-8684] | 7.38 | – | 1.30 | –

Compound | MIC [µg/mL] | potency / potentiation of fluconazole (in words) | MIC (ug/mL) (+) Fluc [µg/mL] | loss in potency compared to MBX-7591 (relative to MBX-7591) [fold]
COc1ccccc1S(=O)(=O)N1CCC2(CC1)CC(CCOc1ccncc1)CCO2 (stereo not shown) [MBX-7961] | > 89 | – | >89 | –
O=S(=O)(c1ccccc1)N1CCC2(CC1)CC(CCOc1ccncc1)CCO2 (stereo not shown) [MBX-7868] | 8.33 | – | 2.08 | –
O=C(c1ccsc1)N1CCC(Cc2ccc(CCc3ccncc3)cc2)CC1 [MBX-8026] | 2.4 | maintained potency | 0.80 | –
O=C1c2ccsc2CCN1Cc1ccc(COc2ccncc2)cc1 [MBX-8243] | 8.76 | – | 4.92 | –
O=C(c1ccc(C(F)(F)F)nc1)N1CCC(Cc2ccc(CN3CCOCC3)cc2)C1 (stereo not shown) [MBX-8392] | > 43 | – | >43 | –
O=C(c1ccc(Cl)s1)N1CCC2(CC1)CC(CCOc1ccncc1)CCO2 (stereo not shown) [MBX-8433] | 2.53 | – | 0.84 | –
O=C(c1ccsc1)N1CCC(Cc2ccc(COc3cc[n+]([O-])cc3)cc2)CC1 [MBX-8191] | > 20 | complete loss of activity | >20 | –
O=C(c1ccsc1)N1CCC(Cc2ccc(C#Cc3ccncc3)cc2)CC1 [MBX-7963] | > 77 | – | >77 | –
O=C(c1cccs1)N1CCC2(CC1)CC(CCOc1ccncc1)CCO2 (stereo not shown) [MBX-8394] | 19 | – | 9.70 | –
c1cc(OCc2ccc(CC3CCNCC3)cc2)ccn1 [MBX-8147] | > 14 | – | >14 | –
O=C(c1ccoc1)N1CCC(Cc2ccc(COc3ccncc3)cc2)CC1 [MBX-7732] | 5.32 | – | 1.88 | 4
O=S(=O)(c1cccs1)N1CCC2(CC1)CN(CCOc1ccncc1)CCO2 [MBX-8310] | 21 | – | 5.20 | –
O=C(c1ccsc1)N1CCC(Oc2ccc(COc3ccncc3)cc2)CC1 [MBX-8309] | 19 | – | 19.00 | –
O=C(c1ccsc1)N1CCC(Cc2ccc(COc3cccnc3)cc2)CC1 [MBX-8065] | > 19 | complete loss of activity | >19 | –
CN(C)Cc1ccc(CC2CCN(S(=O)(=O)c3ccc(F)cc3)CC2)cc1 [MBX-8439] | 9.76 | – | 0.78 | –
O=C1c2ccsc2CCN1Cc1ccc(CCOc2ccncc2)cc1 [MBX-8354] | 9 | – | 14.00 | –
Cc1cc(CN2CCOCC2)ccc1CC1CCN(S(=O)(=O)c2ccc(F)cc2)CC1 [MBX-8346] | 1.1 | – | 0.15 | –
O=C(c1ccsc1)N1CCC(Cc2ccc(CCOc3ccncc3)cc2)CC1 [MBX-8028] | 0.4 | – | 0.60 | –
O=C(c1ccsc1)N1CCC(Cc2ccc(-c3ccncc3)cc2)CC1 [MBX-7964] | 2.27 | maintained potency | 1.13 | –
O=C(c1ccsc1)N1CCc2cc(COc3ccncc3)ccc2C1 [MBX-8308] | 4.3 | – | 1.90 | –
Cn1ccc(C(=O)N2CCC(Cc3ccc(COc4ccncc4)cc3)CC2)c1 [MBX-7773] | 7.79 | antagonistic potentiation effect with the fluconazole | 15.60 | –
CN1CCN(c2ccc(CC3CCN(S(=O)(=O)c4ccc(F)cc4)CC3)cc2)CC1 [MBX-8701] | 0.67 | – | 0.19 | –
